In the supplement of paper PMC13380429:

Assays:
HepG2 [1] = assay: drug sensitivity score (DSS) for viability; higher = more toxic; extreme values may be limits of the assay; details: 72 h
Vero E6 [2] = assay: as above; details: 72 h
Caco-2 [3] = assay: as above; details: 72 h
Calu-3 [4] = assay: as above; details: 72 h
U2OS [5] = assay: as above; details: 72 h
[6] = system: A549-ACE2 infected with SARS-CoV-2; assay: SARS-CoV-2 infection rate relative to DMSO; higher = more infection; details: 24 h
A549-ACE2 [7] = assay: phospholipidosis EC50; higher = less potent phospholipidosis inducer
A549-ACE2 [8] = assay: drug-induced phospholipidosis relative to tamoxifen; higher = more phospholipidosis
HepG2 [9] = assay: cell viability relative to DMSO; higher = less toxic; details: 72 h
Vero E6 [10] = assay: as above; details: 72 h
Caco-2 [11] = assay: as above; details: 72 h
Calu-3 [12] = assay: as above; details: 72 h
U2OS [13] = assay: as above; details: 72 h
[14] = system: A549-ACE2 infected with SARS-CoV-2; assay: cell count relative to DMSO; higher = less toxic; details: 24 h
[15] = system: A549-ACE2 infected with SARS-CoV-2; assay: morphology score (similarity to uninfected cells); higher = more like uninfected cells; details: 24 h
HepG2 [16] = assay: relative viability EC50 (midpoint between 100% and the lowest measured viability); higher = less toxic; details: 72 h
Vero E6 [17] = assay: as above; details: 72 h
Calu-3 [18] = assay: as above; details: 72 h
U2OS [19] = assay: as above; details: 72 h
Caco-2 [20] = assay: as above; details: 72 h

CCN(CC)CCCCNc1ncc2cc(-c3cc(OC)cc(OC)c3)c(NC(=O)NC(C)(C)C)nc2n1 was tested. Which drug sensitivity score (HepG2 [1]) did it give?
Its drug sensitivity score is 3.5.

What about the drug sensitivity score (Vero E6 [2]) of the same molecule?
Its drug sensitivity score is 5.2.

What about the drug sensitivity score (Caco-2 [3]) of the same molecule?
Its drug sensitivity score is 1.2.

What about the drug sensitivity score (Calu-3 [4]) of the same molecule?
Its drug sensitivity score is 1.1.

And the drug sensitivity score (U2OS [5])?
The drug sensitivity score was 5.4.

And the SARS-CoV-2 infection rate ([6]; 0.1 µM)?
Its SARS-CoV-2 infection rate is 105%.

What about the SARS-CoV-2 infection rate ([6]; 0.3 µM) of the same molecule?
Its SARS-CoV-2 infection rate is 105%.

And the SARS-CoV-2 infection rate ([6]; 1 µM)?
Its SARS-CoV-2 infection rate is 96%.

What about the SARS-CoV-2 infection rate ([6]; 3 µM) of the same molecule?
The SARS-CoV-2 infection rate was 35%.

What about the “phospholipidosis EC50” value (A549-ACE2 [7]; 24 h) of the same molecule?
Its value is 3.18 µM.

And the “phospholipidosis EC50” value (A549-ACE2 [7]; 48 h)?
The value was 3.06 µM.

And the drug-induced phospholipidosis (A549-ACE2 [8]; 0.3 µM, 24 h)?
The drug-induced phospholipidosis was 4.11%.

And the drug-induced phospholipidosis (A549-ACE2 [8]; 0.3 µM, 48 h)?
Its drug-induced phospholipidosis is 4.6%.

And the drug-induced phospholipidosis (A549-ACE2 [8]; 0.3 µM, 72 h)?
The drug-induced phospholipidosis was 6.12%.

What about the drug-induced phospholipidosis (A549-ACE2 [8]; 0.833333 µM, 24 h) of the same molecule?
The drug-induced phospholipidosis was 13.5%.

And the drug-induced phospholipidosis (A549-ACE2 [8]; 0.833333 µM, 48 h)?
The drug-induced phospholipidosis was 12.8%.

And the drug-induced phospholipidosis (A549-ACE2 [8]; 0.833333 µM, 72 h)?
Its drug-induced phospholipidosis is 13.2%.

What about the drug-induced phospholipidosis (A549-ACE2 [8]; 3.33333 µM, 24 h) of the same molecule?
Its drug-induced phospholipidosis is 106%.

What about the drug-induced phospholipidosis (A549-ACE2 [8]; 3.33333 µM, 48 h) of the same molecule?
Its drug-induced phospholipidosis is 151%.

And the drug-induced phospholipidosis (A549-ACE2 [8]; 6.66667 µM, 24 h)?
Its drug-induced phospholipidosis is 165%.

What about the drug-induced phospholipidosis (A549-ACE2 [8]; 6.66667 µM, 48 h) of the same molecule?
The drug-induced phospholipidosis was 224%.

And the drug-induced phospholipidosis (A549-ACE2 [8]; 10 µM, 24 h)?
Its drug-induced phospholipidosis is 234%.

And the drug-induced phospholipidosis (A549-ACE2 [8]; 10 µM, 48 h)?
Its drug-induced phospholipidosis is 200%.

What about the drug-induced phospholipidosis (A549-ACE2 [8]; 10 µM, 72 h) of the same molecule?
The drug-induced phospholipidosis was 168%.

And the drug-induced phospholipidosis (A549-ACE2 [8]; 30 µM, 24 h)?
The drug-induced phospholipidosis was 84.5%.

And the cell viability (HepG2 [9]; 1 nM)?
The cell viability was 91.9%.

And the cell viability (HepG2 [9]; 10 nM)?
The cell viability was 101%.

And the cell viability (HepG2 [9]; 100 nM)?
The cell viability was 87.9%.

And the cell viability (HepG2 [9]; 1000 nM)?
Its cell viability is 96.1%.

What about the cell viability (HepG2 [9]; 10000 nM) of the same molecule?
Its cell viability is 45.5%.

What about the cell viability (Vero E6 [10]; 1 nM) of the same molecule?
The cell viability was 94.5%.

And the cell viability (Vero E6 [10]; 10 nM)?
Its cell viability is 97.1%.

And the cell viability (Vero E6 [10]; 100 nM)?
The cell viability was 100%.

And the cell viability (Vero E6 [10]; 1000 nM)?
The cell viability was 90.1%.

What about the cell viability (Vero E6 [10]; 10000 nM) of the same molecule?
Its cell viability is 35.9%.

And the cell viability (Caco-2 [11]; 1 nM)?
The cell viability was 102%.

And the cell viability (Caco-2 [11]; 10 nM)?
Its cell viability is 105%.

And the cell viability (Caco-2 [11]; 100 nM)?
Its cell viability is 103%.

And the cell viability (Caco-2 [11]; 1000 nM)?
Its cell viability is 103%.

And the cell viability (Caco-2 [11]; 10000 nM)?
The cell viability was 69%.

And the cell viability (Calu-3 [12]; 1 nM)?
Its cell viability is 98.9%.

And the cell viability (Calu-3 [12]; 10 nM)?
The cell viability was 98.9%.

What about the cell viability (Calu-3 [12]; 100 nM) of the same molecule?
The cell viability was 100%.

And the cell viability (Calu-3 [12]; 1000 nM)?
Its cell viability is 98.5%.

What about the cell viability (Calu-3 [12]; 10000 nM) of the same molecule?
The cell viability was 75.6%.

What about the cell viability (U2OS [13]; 1 nM) of the same molecule?
The cell viability was 106%.

What about the cell viability (U2OS [13]; 10 nM) of the same molecule?
The cell viability was 105%.

What about the cell viability (U2OS [13]; 100 nM) of the same molecule?
Its cell viability is 100%.

What about the cell viability (U2OS [13]; 1000 nM) of the same molecule?
The cell viability was 85.8%.

And the cell viability (U2OS [13]; 10000 nM)?
Its cell viability is 41.5%.

And the cell count ([14]; 0.1 µM)?
The cell count was 96%.

What about the cell count ([14]; 0.3 µM) of the same molecule?
Its cell count is 90%.

And the cell count ([14]; 1 µM)?
The cell count was 103%.

And the cell count ([14]; 3 µM)?
The cell count was 109%.

And the morphology score ([15]; 0.1 µM)?
The morphology score was 0.01.

And the morphology score ([15]; 0.3 µM)?
Its morphology score is -0.12.

What about the morphology score ([15]; 1 µM) of the same molecule?
The morphology score was 0.28.

And the morphology score ([15]; 3 µM)?
The morphology score was 0.68.

What about the “relative viability EC50” value (HepG2 [16]) of the same molecule?
The value was 2.58 µM.

What about the “relative viability EC50” value (Vero E6 [17]) of the same molecule?
Its value is 1.96 µM.

What about the “relative viability EC50” value (Calu-3 [18]) of the same molecule?
Its value is greater than 10 µM.

What about the “relative viability EC50” value (U2OS [19]) of the same molecule?
The value was 1.58 µM.

What does the source list for N#Cc1ccc(N2N=C3c4ccc(C(=O)O)cc4CC[C@@H]3[C@@H]2C2CCCC2)cc1Cl?
drug sensitivity score (HepG2 [1]): 0; drug sensitivity score (Vero E6 [2]): 0; drug sensitivity score (Caco-2 [3]): 0; drug sensitivity score (Calu-3 [4]): 0; drug sensitivity score (U2OS [5]): 0; SARS-CoV-2 infection rate ([6]; 0.3 µM): 101%; SARS-CoV-2 infection rate ([6]; 3 µM): 99%; SARS-CoV-2 infection rate ([6]; 10 µM): 98%; SARS-CoV-2 infection rate ([6]; 30 µM): 75%; cell viability (HepG2 [9]; 1 nM): 93.1%; cell viability (HepG2 [9]; 10 nM): 96.3%; cell viability (HepG2 [9]; 100 nM): 114%; cell viability (HepG2 [9]; 1000 nM): 95.5%; cell viability (HepG2 [9]; 10000 nM): 103%; cell viability (Vero E6 [10]; 1 nM): 96%; cell viability (Vero E6 [10]; 10 nM): 106%; cell viability (Vero E6 [10]; 100 nM): 90%; cell viability (Vero E6 [10]; 1000 nM): 98.5%; cell viability (Vero E6 [10]; 10000 nM): 117%; cell viability (Caco-2 [11]; 1 nM): 92%; cell viability (Caco-2 [11]; 10 nM): 98.1%; cell viability (Caco-2 [11]; 100 nM): 105%; cell viability (Caco-2 [11]; 1000 nM): 95.1%; cell viability (Caco-2 [11]; 10000 nM): 101%; cell viability (Calu-3 [12]; 1 nM): 101%; cell viability (Calu-3 [12]; 10 nM): 97.6%; cell viability (Calu-3 [12]; 100 nM): 95%; cell viability (Calu-3 [12]; 1000 nM): 92.5%; cell viability (Calu-3 [12]; 10000 nM): 106%; cell viability (U2OS [13]; 1 nM): 97.1%; cell viability (U2OS [13]; 10 nM): 96.4%; cell viability (U2OS [13]; 100 nM): 99.4%; cell viability (U2OS [13]; 1000 nM): 97.7%; cell viability (U2OS [13]; 10000 nM): 99.6%; cell count ([14]; 0.3 µM): 100%; cell count ([14]; 3 µM): 107%; cell count ([14]; 10 µM): 96%; cell count ([14]; 30 µM): 97%; morphology score ([15]; 0.3 µM): -0.02; morphology score ([15]; 3 µM): 0.24; morphology score ([15]; 10 µM): -0.01; morphology score ([15]; 30 µM): 0.57; relative viability EC50 (HepG2 [16]): > 10 µM; relative viability EC50 (Vero E6 [17]): > 10 µM; relative viability EC50 (Caco-2 [20]): > 10 µM; relative viability EC50 (Calu-3 [18]): > 10 µM; relative viability EC50 (U2OS [19]): > 10 µM
